According to US10214540B2, “Compound having agonistic activity on somatostatin receptor, and use thereof for medical purposes” (ONO PHARMACEUTICAL CO., LTD., priority 2012, dated 2019):

Assays:
[1] = target: T1, human SSTR2 (Homo sapiens, UniProt P30874); assay: Evaluation of SSTR2 agonist activity using human SSTR2 expressing cells (inhibition of Forskolin-stimulated cAMP production in SSTR2-CHO-K1); assay type: cell-based; conditions: read-out: EC50 of agonist activity against human SSTR2
T1 construct: Myc; expressed in transfected cells
Procedure: Evaluation of SSTR2 Agonist Activity Using Human SSTR2 Expressing Cells
CHO-K1 (−) were cultured using Ham's F-12 (including FBS (10%), penicillin (100 U/mL) and streptomycin (0.1 mg/mL)) as medium. The transduced cells were cultured using the medium above with geneticin (1 mg/ml).
The plasmid pIRESneo-Myc/hSSTR2 was transduced into CHO-K1 (−) cell using Lipofectamine 2000 (Invitrogen). After 48 hours, the medium was changed to the medium including 1 mg/mL Geneticin, overexpressing cells were selected and stably overexpressing cells (SSTR2-CHO-K1) were established.
Human SSTR2 agonist activity of test compounds was evaluated by following procedure using inhibition activity against intracellular cyclic AMP (cAMP) production stimulated by Forskolin as an indicator. The SSTR2-CHO-K1 cells suspended in Ham's F-12 medium (including fetal bovine serum (10%), penicillin (100 U/mL), streptomycin (0.1 mg/mL)) including 0.25 mg/mL Geneticin was seeded in 96 wells plate (4.0×10^4 cells/0.1 mL/1 well). After 1 day, the medium was removed and the cells were washed with 0.1 mL of wash buffer solution [0.1% bovine serum albumin (BSA), Hank's Balanced Salt Solution (HBSS) including 20 mmol/L 4-(2-hydroxyethyl)-1-piperazine ethanesulfonic acid (HEPES)] twice. To the cells added 0.06 mL/well assay buffer [500 nmol/L 3-isobutyl-1-methylxanthine (IBMX), 0.1% BSA, 20 mmol/L HBSS including HEPES], and incubated for 15 min. under 5% CO2 and 37° C. Next, to the cells added 0.06 mL/well assay buffer including test compounds of the double concentration of final concentration and 0.02 mmol/L Forskolin, and incubated for 30 min. under 5% CO2 and 37° C. After that, to the cells added 0.12 mL/well Assay/Lysis buffer included with cAMP-Screen® kit (Applied Biosystems®), and incubated for 30 min. under 5% CO2 and 37° C. The concentration of c-AMP is determined by ELISA test according to manual included with the kit.

[2] = test system: Growth Hormone (GH) secretion; assay: Evaluation of Growth Hormone (GH) secretory inhibitory activity using rat (GHRH-evoked); assay type: in vivo
Procedure: Evaluation of Growth Hormone (GH) secretory inhibitory activity using rat.
Test compounds dissolved in vehicle (distillated water (Otsuka jouryuusui, Otsuka Pharmaceutical Factory, Inc.) or vehicle only was administered to rat (7-week-old, male Crl: CD (SD) IGS rat (CHARLES RIVER LABORATORIES JAPAN, INC.)) orally, and 27 min. later, 50 mg/kg of sodium pentobarbital (Somunopentil® Kyoritsu Seiyaku) was administered by tail vein injection to be anesthetized. Three minutes after administration of sodium pentobarbital, 0.01 mg/kg of growth hormone-releasing hormone (GHRH, Bachem) was administered by tail vein injection to evoke GH secretion. To measure blood concentration of GH, 0.2 mL blood sample from cervical vein was collected 5 minutes after administration of GHRH. The blood samples were treated with centrifugation at 13,000 g at 4° C. for 5 min. to obtain plasma sample. Blood concentration of GH was determined by Rat/Mouse Growth Hormone ELISA (Millipore) according to the procedure manual.
Test compounds dissolved in vehicle (distillated water (Otsuka jouryuusui, Otsuka Pharmaceutical Factory, Inc.) or vehicle only was administered to rat (7-week-old, male Crl: CD (SD) IGS rat (CHARLES RIVER LABORATORIES JAPAN, INC.)) orally, and 7 hours 57 minutes later, 50 mg/kg of sodium pentobarbital (Somunopentil® Kyoritsu Seiyaku) was administered by tail vein injection to be anesthetized. Three min. after administration of sodium pentobarbital, 0.01 mg/kg of growth hormone-releasing hormone (GHRH, Bachem) was given by tail vein injection to evoke GH secretion. Procedure after that was same as [Procedure (A)]

[3] = Evaluation of the cell toxicity using cultured human hepatocyte (ATP, Celltiter-Glo); assay type: cell-based; conditions: cultured adherent human hepatocytes (thawed from frozen); cultured human hepatocytes, 24 hours, ATP concentration; read-out: IC50 (50% inhibitory compound concentration of the emission of light, cell toxicity)
Procedure: (§1) Evaluation of the cell toxicity using cultured human hepatocyte.
(§2) Frozen adherent human hepatocyte was thawed and suspended in hepatocyte cultured medium (HCM) purchased from Lonza, and then seeded in 96 wells plate coated by collagen. The hepatocytes were cultured overnight in the incubator (5% carbon dioxide, 95% air, 37° C.) and its medium was replaced with medium including test compounds ([…]) and cultured for 24 hours more. The cell toxicity was evaluated by measurement of ATP concentration in the cells. Specifically, using Promega Celltiter-Glo luminescent assay kit made by Promega KK, the cells were dissolved in an accompanying assay buffer and the ATP concentration released from the cells was determined by an emission of light of the luciferin-luciferase enzyme activity. The emission of light was measured by Molecular device's SpectraMax plate reader. A degree of toxicity was shown 50% inhibitory compound concentration of the emission of light (IC50).

[4] = test system: cultured human hepatocyte; assay: as above; assay type: cell-based; conditions: IC50 of Biological Example 4 / EC50 of Biological Example 1
Procedure: as §1, §2

[5] = test system: gastric acid secretion; assay: Evaluation of the gastric-acid secretion inhibitory activity using rat (gastric outlet tied off); assay type: in vivo; conditions: dose of 0.3 mg/kg, subcutaneously
Procedure: Evaluation of the gastric-acid secretion inhibitory activity using rat.
After closing the laparotomy department, vehicle only (saline (Otsuka seishokuchu, Otsuka Pharmaceutical Factory, Inc.) or test compounds which were dissolved in vehicle were administered subcutaneously immediately, and the rats were recovered from anesthesia. After 2 hours from tying gastric outlet, the rats were treated with abdominal operation under isoflurane anesthesia again, pinched cardiac end of the stomach with forceps and exsanguinated to death. After stomach contents were centrifugalized at 500 g for 15 min. and the supernatant was separated as gastric fluid, the volume of gastric fluid was determined based on weight (mL/100 g BW). Furthermore, acid concentration of gastric fluid (mmol/mL) was determined by back titration using COM-1600ST automatic titrator (Hitachi High-Technologies Corporation (Hiranuma sangyo Co., Ltd.)).

[6] = target: somatostatin receptor subtype 2 (SSTR2) (Homo sapiens, UniProt P30874); conditions: reported in background art; cited from earlier work
[7] = target: somatostatin receptor subtype 3 (SSTR3) (Homo sapiens, UniProt P32745); conditions: reported in background art; cited from earlier work
[8] = target: somatostatin receptor subtype 1 (SSTR1) (Homo sapiens, UniProt P30872); conditions: reported in background art; cited from earlier work
[9] = target: somatostatin receptor subtype 4 (SSTR4) (Homo sapiens, UniProt P31391); conditions: reported in background art; cited from earlier work
[10] = 1 mg/kg orally, Procedure (B): administered 8 hours before

T1 sequence (P30874 whole entry): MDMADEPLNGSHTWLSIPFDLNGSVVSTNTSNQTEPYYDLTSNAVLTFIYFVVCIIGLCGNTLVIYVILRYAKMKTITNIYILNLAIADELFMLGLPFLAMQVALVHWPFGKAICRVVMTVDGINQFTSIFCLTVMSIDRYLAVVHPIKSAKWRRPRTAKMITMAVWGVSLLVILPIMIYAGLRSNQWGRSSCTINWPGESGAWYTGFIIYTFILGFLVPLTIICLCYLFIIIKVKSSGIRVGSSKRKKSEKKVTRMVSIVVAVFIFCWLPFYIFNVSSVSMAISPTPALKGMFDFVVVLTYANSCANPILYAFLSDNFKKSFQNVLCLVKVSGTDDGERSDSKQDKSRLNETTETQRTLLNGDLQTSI
Sequence of somatostatin receptor subtype 2 (SSTR2) (P30874 whole entry, species assumed): as the sequence (P30874 whole entry) above
Sequence of somatostatin receptor subtype 3 (SSTR3) (P32745 whole entry, species assumed): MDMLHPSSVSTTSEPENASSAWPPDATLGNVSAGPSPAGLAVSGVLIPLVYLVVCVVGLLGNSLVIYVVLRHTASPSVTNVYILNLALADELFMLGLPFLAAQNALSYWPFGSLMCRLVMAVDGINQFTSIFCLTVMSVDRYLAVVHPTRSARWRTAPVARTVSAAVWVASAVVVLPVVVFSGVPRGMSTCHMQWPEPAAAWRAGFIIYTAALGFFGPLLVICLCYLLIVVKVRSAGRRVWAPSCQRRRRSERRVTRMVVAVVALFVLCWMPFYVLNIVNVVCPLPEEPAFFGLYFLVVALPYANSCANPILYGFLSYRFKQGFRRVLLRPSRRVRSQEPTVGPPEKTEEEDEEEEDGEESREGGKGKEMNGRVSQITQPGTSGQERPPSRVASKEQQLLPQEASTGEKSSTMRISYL
Sequence of somatostatin receptor subtype 4 (SSTR4) (P31391 whole entry, species assumed): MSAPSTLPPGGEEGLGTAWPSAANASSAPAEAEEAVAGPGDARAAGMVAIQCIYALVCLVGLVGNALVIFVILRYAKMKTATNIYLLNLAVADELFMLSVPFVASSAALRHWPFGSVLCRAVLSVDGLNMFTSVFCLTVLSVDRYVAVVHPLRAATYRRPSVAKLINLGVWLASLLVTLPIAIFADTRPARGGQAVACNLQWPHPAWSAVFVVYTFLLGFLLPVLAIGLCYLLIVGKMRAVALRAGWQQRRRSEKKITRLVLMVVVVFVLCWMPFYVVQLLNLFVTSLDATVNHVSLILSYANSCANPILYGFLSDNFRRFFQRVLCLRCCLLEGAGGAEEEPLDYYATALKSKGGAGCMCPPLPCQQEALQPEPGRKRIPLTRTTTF
Sequence of somatostatin receptor subtype 1 (SSTR1) (P30872 whole entry, species assumed): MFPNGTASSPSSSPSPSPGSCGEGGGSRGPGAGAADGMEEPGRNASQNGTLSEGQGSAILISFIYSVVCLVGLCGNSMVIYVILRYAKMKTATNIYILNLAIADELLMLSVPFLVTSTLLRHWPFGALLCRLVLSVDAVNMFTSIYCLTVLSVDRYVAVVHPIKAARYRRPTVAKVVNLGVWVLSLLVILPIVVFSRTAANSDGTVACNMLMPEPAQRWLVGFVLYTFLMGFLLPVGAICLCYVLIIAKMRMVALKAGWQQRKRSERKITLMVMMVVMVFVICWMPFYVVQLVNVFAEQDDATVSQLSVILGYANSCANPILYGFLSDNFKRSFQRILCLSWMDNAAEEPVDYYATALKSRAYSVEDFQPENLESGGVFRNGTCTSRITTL

EC50 [1] [pM] | Structure (SMILES) | ratio of GH secretion inhibition [2, 10] [%] | IC50 at 24 h [3] [µM] | ratio of IC50 (hepatocyte toxicity) divided by SSTR2 agonist activity (EC50) [4] | other results
49 | Cc1cc(F)cc(-c2cncc(-c3ccc(C(F)(F)F)cc3)c2N2CCC(N)CC2)c1 [Example 26(24), 1-{3-(3-fluoro-5-methylphenyl)-5-[4-(trifluoromethyl)phenyl]-4-pyridinyl}-4-piperidinamine] | 91 | 35 | 710,000 times | 
 | Cc1cc(C)cc(-c2cncc(-c3ccc(C(F)(F)F)cc3)c2N2CCC(N)CC2)c1 [Example 26(15), 1-{3-(3,5-dimethylphenyl)-5-[4-(trifluoromethyl)phenyl]-4-pyridinyl}-4-piperidinamine] |  |  |  | ratio of GH secretion inhibition ([2]; 3 mg/kg orally, Procedure (B): administered 8 hours before): 92%
34 | Cc1cc(F)cc(-c2cncc(/C=C/c3cncc(C#N)c3)c2N2CC[C@H]3NCCO[C@@H]3C2)c1 (racemic) [Example 36(8), 5-[(E)-2-{5-(3-fluoro-5-methylphenyl)-4-[rac-(4aR,8aR)-octahydro-6H-pyrido[3,4-b][1,4]oxazin-6-yl]-3-pyridinyl}vinyl]nicotinonitrile] | 83 | 69 | 2,030,000 times | 
6 | Cc1cc(C)cc(NC(=O)c2cncc(-c3cc(C)cc(C)c3)c2N2CCC(CN)CC2)c1 [Example 2(20), 4-[4-(aminomethyl)-1-piperidinyl]-N,5-bis(3,5-dimethylphenyl)pyridine-3-carboxamide] |  | 40 | 6,670,000 times | ratio of GH secretion inhibition ([2]; 3 mg/kg orally, Procedure (A): administered 30 min before): 97%; ratio of gastric acid secretion inhibition [5]: 89%
 | CC(C)[C@@H]1NC(=O)[C@H](CCCCN)NC(=O)[C@@H](Cc2c[nH]c3ccccc23)NC(=O)[C@H](Cc2ccc(O)cc2)NC(=O)[C@@H](NC(=O)[C@H](N)Cc2ccc3ccccc3c2)CSSC[C@@H](C(=O)N[C@H](C(N)=O)[C@@H](C)O)NC1=O [Lanreotide acetate] |  |  |  | binding affinity to SSTR2 (in words) [6]: high affinity; binding affinity to SSTR3 (in words) [7]: moderate affinity; binding to SSTR1 (in words) [8]: not to bind; binding to SSTR4 (in words) [9]: not to bind
16 | Cc1cc(F)cc(-c2cncc(/C=C/c3cccc(C#N)c3)c2N2CCC(N)CC2)c1 [Example 36(5), 3-{(E)-2-[4-(4-amino-1-piperidinyl)-5-(3-fluoro-5-methylphenyl)-3-pyridinyl]vinyl}benzonitrile] | 92 | 19 | 1,190,000 times | 
 | Cc1cc(C)cc(-c2cnc3cc(Cl)c(-c4cnn(C)c4)cc3c2OCC[C@H]2CCCCN2)c1 [formula (M), reference compound] |  | 13 |  | 
